Assay results reported in PubChem BioAssay AID1259246 (Broad Institute, 2017).
Records with an inconclusive call do not appear. The source made the active and inactive calls.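 The calls were made as follows: active = valid dose-response fit whose half-maximal growth-inhibiting concentration is at or below a set limit above the top tested dose; inconclusive = flat fit with effect between 30 and 70%, or poor fit; inactive = half-maximal concentration above a set limit.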

Assay: antibacterial activity against Clostridioides difficile – 10-point retest, dose response (AID 1259246)
Conditions: Clostridioides difficile clinical isolate growth, OD600, 24 h; at 60 µM (top of the series)
In the case of `CN(C)CC(=O)N1[C@H](C#N)[C@H](c2ccc(C#CC3CCCCC3)cc2)[C@H]1CO`, the activity change, negative = inhibition is reported as 6.71% (inactive).
With `C[C@H]1CN([C@@H](C)CO)S(=O)(=O)c2ccc(C#CC3CCCC3)cc2O[C@@H]1CN(C)Cc1cccnc1` the activity change, negative = inhibition was 7.15% (inactive).
With `C[C@@H]1CN([C@H](C)CO)S(=O)(=O)c2ccc(/C=C/c3ccccc3)cc2O[C@H]1CN(C)C` the activity change, negative = inhibition was 5.46% (inactive).

Same assay, conditions: Clostridioides difficile clinical isolate growth, OD600, 24 h; at 120 µM (top of the series)
In the case of `C[C@@H]1CN([C@H](C)CO)C(=O)c2cccc(NC(=O)Nc3ccc4c(c3)OCO4)c2O[C@H]1CN(C)Cc1ccc(-c2ccccc2)cc1`, the activity change, negative = inhibition is reported as 6.58% (inactive).
With `CNC[C@@H]1Oc2cc(C#CCC(C)C)ccc2S(=O)(=O)N([C@@H](C)CO)C[C@H]1C` the activity change, negative = inhibition was 21.5% (inactive).
For `CC(C)C#Cc1ccc2c(c1)O[C@@H](CN(C)Cc1cccnc1)[C@H](C)CN([C@H](C)CO)S2(=O)=O`, the activity change, negative = inhibition was 27.7% (inactive).
In the case of `C[C@H]1CN([C@@H](C)CO)C(=O)Cc2cc(NC(=O)CCCN(C)C)ccc2O[C@@H]1CN(C)Cc1ccc(Oc2ccccc2)cc1`, the activity change, negative = inhibition is reported as 32.2% (inactive).
In the case of `CNC[C@H]1Oc2cc(Br)ccc2S(=O)(=O)N([C@H](C)CO)C[C@@H]1C`, the activity change, negative = inhibition is reported as 6.99% (inactive).
For `COc1ccc(NC(=O)Nc2cccc3c2O[C@@H](CN(C)C(=O)NC2CCCCC2)[C@H](C)CN([C@H](C)CO)C3=O)cc1`, the activity change, negative = inhibition was 1.64% (inactive).
With `CO[C@@H]1CN(C)C(=O)c2ccc(NC(=O)c3nc4ccccc4s3)cc2OC[C@H](C)N(Cc2ccncc2)C[C@@H]1C` the activity change, negative = inhibition was 10.8% (inactive).
For `C[C@@H]1CN([C@H](C)CO)C(=O)c2cc(NS(=O)(=O)c3ccccc3)ccc2O[C@@H](C)CCCCO[C@H]1CN(C)S(=O)(=O)c1ccc(F)cc1`, the activity change, negative = inhibition was 12.7% (inactive).
For `C[C@@H]1CN([C@@H](C)CO)C(=O)c2cc(NC(=O)NC3CCCCC3)ccc2O[C@@H]1CN(C)C(=O)Nc1ccc(F)cc1`, the activity change, negative = inhibition was 58.5% (inactive).
In the case of `CC(C)CC#Cc1ccc2c(c1)O[C@H](CN(C)Cc1ccc3c(c1)OCO3)[C@@H](C)CN([C@@H](C)CO)S2(=O)=O`, the activity change, negative = inhibition is reported as 21.9% (inactive).
With `CNC[C@@H]1Oc2cc(Br)ccc2S(=O)(=O)N([C@H](C)CO)C[C@H]1C` the activity change, negative = inhibition was 2.27% (inactive).
In the case of `C[C@@H]1CN([C@H](C)CO)C(=O)c2cccc(NC(=O)Nc3ccc(C(F)(F)F)cc3)c2O[C@H]1CN(C)S(=O)(=O)c1ccc(Cl)cc1`, the activity change, negative = inhibition is reported as 48.2% (inactive).
With `CNC[C@@H]1Oc2ccc(NC(=O)CCCN(C)C)cc2CC(=O)N([C@H](C)CO)C[C@H]1C` the activity change, negative = inhibition was 2.33% (inactive).
In the case of `CO[C@@H]1CN(C)C(=O)c2ccc(NC(=O)c3nc4ccccc4s3)cc2OC[C@@H](C)N(Cc2ccncc2)C[C@H]1C`, the activity change, negative = inhibition is reported as 28.6% (inactive).
In the case of `CO[C@H]1CN(C)C(=O)c2ccc(NC(=O)c3ccc(-c4ccccc4)cc3)cc2OC[C@H](C)NC[C@@H]1C`, the activity change, negative = inhibition is reported as 5.28% (inactive).
In the case of `O=C(C[C@@H]1C[C@@H]2c3cc(NC(=O)C4CCC4)ccc3O[C@@H]2[C@H](CO)O1)NCc1ccc(Cl)cc1`, the activity change, negative = inhibition is reported as -2.36% (inactive).
For `C[C@H](CO)N1C[C@H](C)[C@@H](CN(C)Cc2ccc(-c3ccccc3)cc2)Oc2c(NC(=O)Nc3ccc4c(c3)OCO4)cccc2C1=O`, the activity change, negative = inhibition was 2.74% (inactive).
In the case of `CC(C)NC(=O)Nc1ccc2c(c1)CC(=O)N([C@H](C)CO)C[C@@H](C)[C@@H](CN(C)Cc1ccc(-c3ccccc3)cc1)O2`, the activity change, negative = inhibition is reported as 20.5% (inactive).
For `CC(C)CC#Cc1ccc2c(c1)O[C@@H](CN(C)Cc1ccc3c(c1)OCO3)[C@H](C)CN([C@H](C)CO)S2(=O)=O`, the activity change, negative = inhibition was 17.8% (inactive).
For `CO[C@H]1CN(C)C(=O)c2ccc(NC(=O)c3ccc(-c4ccccc4)cc3)cc2OC[C@H](C)NC[C@H]1C`, the activity change, negative = inhibition was 4.8% (inactive).
In the case of `CO[C@@H]1CN(C)C(=O)c2cc(NC(=O)c3ccc(-c4ccccc4)cc3)ccc2OC[C@H](C)NC[C@@H]1C`, the activity change, negative = inhibition is reported as 31.8% (inactive).
For `C[C@@H]1CN([C@@H](C)CO)C(=O)c2cccc(NC(=O)Nc3ccc(C(F)(F)F)cc3)c2O[C@H]1CN(C)C(=O)NC1CCCCC1`, the activity change, negative = inhibition was 15.3% (inactive).
For `COc1ccc(CN2C[C@H](C)[C@@H](OC)CN(C)C(=O)c3ccc(NC(=O)c4nc5ccccc5s4)cc3OC[C@@H]2C)cc1`, the activity change, negative = inhibition was 9.23% (inactive).
For `C[C@@H]1CN([C@@H](C)CO)C(=O)Cc2cc(NC(=O)C3CC3)ccc2O[C@H]1CN(C)Cc1ccc(-c2ccccc2)cc1`, the activity change, negative = inhibition was 25% (inactive).
For `Cc1ccc(S(=O)(=O)N[C@@H]2CC[C@@H](CCNS(=O)(=O)Cc3ccccc3)O[C@H]2CO)cc1`, the activity change, negative = inhibition was -1.85% (inactive).
In the case of `C[C@@H]1CCCCO[C@H](CN(C)C(=O)CCC(F)(F)F)[C@H](C)CN([C@@H](C)CO)C(=O)c2cc(NC(=O)c3ccncc3)ccc2O1`, the activity change, negative = inhibition is reported as 14.3% (inactive).
With `COc1ccccc1-c1ccc2c(c1)O[C@H](CN(C)Cc1ccc3c(c1)OCO3)[C@H](C)CN([C@@H](C)CO)S2(=O)=O` the activity change, negative = inhibition was 31.6% (inactive).
In the case of `Cc1ccc(S(=O)(=O)N[C@H]2CC[C@@H](CCNS(=O)(=O)Cc3ccccc3)O[C@@H]2CO)cc1`, the activity change, negative = inhibition is reported as -4.91% (inactive).
With `C[C@@H]1CN([C@H](C)CO)C(=O)Cc2cc(NC(=O)C3CC3)ccc2O[C@H]1CN(C)Cc1ccc(-c2ccccc2)cc1` the activity change, negative = inhibition was 18.8% (inactive).
For `C[C@@H]1CN([C@H](C)CO)C(=O)c2cccc(NC(=O)Nc3ccc(C(F)(F)F)cc3)c2O[C@@H]1CN(C)C(=O)NC1CCCCC1`, the activity change, negative = inhibition was 7.85% (inactive).
With `C[C@@H]1CN([C@@H](C)CO)C(=O)Cc2cc(NC(=O)CCC(F)(F)F)ccc2O[C@H]1CN(C)Cc1ccc(-c2ccccc2)cc1` the activity change, negative = inhibition was 37.3% (inactive).
In the case of `COc1ccc(NC(=O)N(C)C[C@H]2Oc3ccc(NC(=O)C4CC4)cc3CC(=O)N([C@H](C)CO)C[C@H]2C)cc1`, the activity change, negative = inhibition is reported as -3.71% (inactive).
For `COc1ccc(CN(C)C[C@H]2Oc3ccc(NC(=O)C4CC4)cc3CC(=O)N([C@@H](C)CO)C[C@H]2C)cc1`, the activity change, negative = inhibition was -3.18% (inactive).

Same assay, conditions: Clostridioides difficile clinical isolate growth, OD600, 24 h; at 135 µM (top of the series)
With `C[C@H]1CN([C@@H](C)CO)C(=O)Cc2cc(NC(=O)CCCN(C)C)ccc2O[C@@H]1CN(C)Cc1ccc(-c2ccccc2)cc1` the activity change, negative = inhibition was -3.4% (inactive).
With `O=C(C[C@H]1C[C@@H]2c3cc(NC(=O)Nc4ccccc4)ccc3O[C@@H]2[C@H](CO)O1)NC1CCCC1` the activity change, negative = inhibition was -0.545% (inactive).
In the case of `C[C@@H]1CN([C@@H](C)CO)C(=O)Cc2cc(NC(=O)CCCN(C)C)ccc2O[C@H]1CN(C)S(C)(=O)=O`, the activity change, negative = inhibition is reported as -4.68% (inactive).
With `C[C@@H]1CN([C@@H](C)CO)C(=O)Cc2cc(NC(=O)CCC(F)(F)F)ccc2O[C@H]1CN(C)Cc1ccc(Oc2ccccc2)cc1` the activity change, negative = inhibition was 8.79% (inactive).
For `COc1ccccc1CNC(=O)C[C@H]1C[C@@H]2c3cc(NC(=O)NC4CCCC4)ccc3O[C@@H]2[C@H](CO)O1`, the activity change, negative = inhibition was 4.13% (inactive).
With `O=S(=O)(Cc1ccccc1)NCC[C@H]1CC[C@H](NS(=O)(=O)c2ccc(F)cc2)[C@H](CO)O1` the activity change, negative = inhibition was -6.92% (inactive).
With `CO[C@H]1CN(C)C(=O)c2cc(NC(=O)c3nc4ccccc4s3)ccc2OC[C@H](C)NC[C@H]1C` the activity change, negative = inhibition was -0.247% (inactive).
With `CNC[C@H]1Oc2c(N)cccc2C(=O)N([C@H](C)CO)C[C@@H]1C` the activity change, negative = inhibition was -1.95% (inactive).
